One may read the melting point as the temperature of the solid-liquid transition. The pIC50 is the negative decadic logarithm of the IC50, by convention in mol/L.

30 compounds from patent US6376506B1, “Sulfamide-metalloprotease inhibitors” (Syntex (U.S.A.) LLC, priority 1997, dated 2002) can be followed below.

pIC50: −log10 of the molar value. Counter-ions that a name gives are not always drawn.

Data set [1] concerns the target T1, human collagenase-3 catalytic domain (Homo sapiens, UniProt P45452).
T1 construct: After purification, the catalytic domain was released by treatment with 1 mM APMA for 1 hour at 37° C; ubiquitin (N, cleaved yes); made in house; host or cells: E. coli
Nature of the data set: MMP inhibition in vitro, human collagenase-3. The following applies: MCA-Pro-Leu-Gly-Leu-DPA-Ala-Arg-NH2 hydrolysis at 37° C.; read-out: Collagenase-III IC50. Type of data set: biochemical. The protocol:
The propeptide and catalytic domain portion of human collagcenase-3 was expressed in E. Coli as an N-terminal fusion protein with ubiquitin. After purification, the catalytic domain was released by treatment with 1 mM APMA for 1 hour at 37° C., and then purified by zinc chelate chromatography.
(§1) The matrix metalloprotease inhibitory activity of compounds of this invention in vitro was determined based on the hydrolysis of MCA-Pro-Leu-Gly-Leu-DPA-Ala-Arg-NH2 (Bachem, Inc.) at 37° C. as described in Knight, C. G., et al., FEBS Lett., 296, 263-266 (1992).
(§2) The matrix metalloprotease enzyme was diluted with assay buffer (50 mM Tricine pH 7.5, 200 mM NaCl, 10 mM CaCl2, and 0.005% Brij-35) containing 10 μmole of above substrate dissolved in DMSO. Compounds of the invention dissolved in DMSO or only DMSO (control samples) were added such that the final DMSO concentration in all assays was 2.5%. The fluorescence changes were monitored with a Perkin-Elmer LS-50B flourimeter using an excitation wavelength of 328 nm and an emission wavelength of 393 nm.

For data set [2], the target named is T2, human collagenase-1 catalytic domain (Homo sapiens, UniProt P03956).
T2 construct: the collagenase-1 catalytic domain was released by treatment with 1 mM of aminophenylmercuric acetate (APMA); ubiquitin (cleaved yes); made in house; host or cells: E. coli
T2 sequence (P03956 100-269 limits assumed): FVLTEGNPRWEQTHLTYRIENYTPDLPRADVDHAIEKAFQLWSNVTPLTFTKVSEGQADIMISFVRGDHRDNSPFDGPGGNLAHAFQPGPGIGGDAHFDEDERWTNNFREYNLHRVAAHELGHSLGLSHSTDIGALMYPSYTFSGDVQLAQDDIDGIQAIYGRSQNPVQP
Put plainly: MMP inhibition in vitro, human collagenase-1. Type of data set: biochemical. Particulars: MCA-Pro-Leu-Gly-Leu-DPA-Ala-Arg-NH2 hydrolysis at 37° C.; read-out: Collagenase-I IC50. The protocol: The catalytic domain of human collagenase-1 was expressed as a fusion protein with ubiquitin in E. Coli as described in Gehring, E. R. et al., J. Biol. Chem., 270, 22507, (1995). After purification of the fusion protein, the collagenase-1 catalytic domain was released by treatment with 1 mM of aminophenylmercuric acetate (APMA) for 1 hour at 37° C. and then purified by zinc chelate chromatography.
as §1, §2

Take `CC(NS(=O)(=O)N1CCc2c([nH]c3ccccc23)C1)C(=O)[O-].[Na+]` (stereo not shown): the melting point was 209 to 211 °C (dec.).
Same read-out and setting: with `COCCN(CC(=O)NO)S(=O)(=O)N1CCN(c2ccc(Cl)cc2)CC1` (as salt: TFA) [compound 16] the figure was 54.1 to 57.7 °C.
Consider `O=C(NO)C1CCCCN1S(=O)(=O)N1CCC(c2c[nH]c3ccc(F)cc23)CC1` (racemic) [compound 254], for which the figures for the negative logarithm of the IC50 (pIC50) in data set [1] and in data set [2] were 6.74 and under 4.30, respectively.
For `CC(=O)N1CCN(S(=O)(=O)N2CCC(C(=O)c3ccc(Cl)cc3)CC2)C(C(=O)NO)C1` (racemic) [compound 255], the negative-log IC50 (pIC50) in data set [1] was 9.72; in data set [2] it was 6.92.
`O=CN1CCN(S(=O)(=O)N2CCC(C(=O)c3ccc(Cl)cc3)CC2)C(C(=O)NO)C1` (racemic) [compound 262]: the negative logarithm of the IC50 (pIC50) is 9.89 in data set [1] and 7.06 in data set [2].
As to `O=C(NO)C1CCCCN1S(=O)(=O)N1CC=C(c2ccc(Cl)cc2)CC1` (racemic) [compound 375, N-hydroxy-1-[4-(4-chlorophenyl)-1,2,3,6-tetrahydropyridine-1-sulfonyl]piperidine-2-(RS)-carboxamide], the melting point lay in the range of 137.8 to 138.1 °C.
On the same count and under the same terms, next, `Cc1cc(C2=CCN(S(=O)(=O)N3CCN(C(=O)OCc4ccccc4)CC3C(=O)NO)CC2)ccc1F` (racemic) [compound 381, N-hydroxy-4-benzyloxycarbonyl-1-[4-(4-fluoro-3-methylphenyl)-1,2,3,6-tetrahydropyridine-1-sulfonyl]piperazine-2-(RS)-carboxamide]: 67 to 70 °C.
For `COCCN(CC(=O)NO)S(=O)(=O)N1CCN(c2ccc(Cl)cc2)CC1` [compound 16], the negative-log IC50 (pIC50) in data set [1] is 7.68; in data set [2], 4.66.
In turn, `O=C(CNS(=O)(=O)N1CCN(c2cccc(Cl)c2)CC1)NO` [compound 33, N-hydroxy-2-{[4-(3-chlorophenyl)piperazine-1-sulfonyl]amino}acetamide] displayed a melting point of 138.1 to 138.6 °C.
Compound `C[C@@H](NS(=O)(=O)N1CCC(Oc2ccc(Cl)cc2)CC1)C(=O)NO` [compound 57, N-hydroxy-2-(R)-{[4-(4-chlorophenoxy)piperidine-1-sulfonyl]amino}propionamide] displayed a melting point of 93 to 94 °C.
In turn, `CC(C)(C)[C@@H](NS(=O)(=O)N1CCN(c2ccc(Cl)cc2)CC1)C(=S)NO` [compound 62, N-hydroxy-2-(R)-{[4-(4-chlorophenyl)piperazine-1-sulfonyl]amino}-3-methyl-3-methylthiobutyramide] showed a melting point of 158.5 to 159.6 °C.
Consider `O=C(NO)[C@@H](Cc1ccc(O)cc1)NS(=O)(=O)N1CCN(c2ccc(Cl)cn2)CC1` [compound 103, N-hydroxy-2-(R)-{[4-(5-chloropyridin-2-yl)piperazine-1-sulfonyl]amino}-3-(4-hydroxyphenyl)propionamide], for which the melting point worked out at 142 °C.
Consider `CC(C)[C@H](C(=O)NO)N(CCCc1cccnc1)S(=O)(=O)N1CCC(Oc2ccc(Br)cc2)CC1` [compound 105], for which the pIC50 in data set [1] was 9.23; in data set [2], 6.89.
With `C[C@H](NS(=O)(=O)N1CCC(C(=O)c2ccc(Cl)cc2)CC1)C(=O)NO` [compound 125, N-hydroxy-2-(S)-{[4-(4-chlorobenzoyl)piperidine-1-sulfonyl]amino}propionamide], the melting point lay within 201.2 to 201.8 °C.
Still for that read-out and setting: with `CC(C)[C@@H](NS(=O)(=O)N1CCC(c2ncc(-c3ccccc3)s2)CC1)C(=O)NO` [compound 136, N-hydroxy-2-(R)-{[4-(5-phenylthiazol-2-yl)piperidine-1-sulfonyl]amino}-3-methylbutyramide] the figure was 120 to 122.1 °C; with `C[C@@H](NS(=O)(=O)N1CCC(C(=O)c2ccc(Oc3ccccc3)cc2)CC1)C(=O)NO` [compound 148, N-hydroxy-2-(R)-{[4-(4-phenoxybenzoyl)piperidine-1-sulfonyl]amino}propionamide], 202 to 205 °C.
`C[C@@H](NS(=O)(=O)N1CCN(C(=O)Nc2ccc(Cl)cc2)CC1)C(=O)NO` [compound 177, N-hydroxy-2-(R)-{[4-(4-chlorophenylaminocarbonyl)piperazine-1-sulfonyl]amino}propionamide]: the negative logarithm of the IC50 (pIC50) is 8.80 in data set [1] and 5.03 in data set [2].
For `CC(C)[C@@H](NS(=O)(=O)N1CCC(Oc2cccc(Cl)n2)CC1)C(=O)NO` [compound 183, N-hydroxy-2-(R)-{[4-(6-chloropyridin-2-yloxy)piperidine-1-sulfonyl]amino}-3-methylbutyramide], the melting point lay in the range of 81 to 96 °C.
The same measure, in the same setting: with `O=C(NO)[C@H](NS(=O)(=O)N1CCC(Oc2ccc(Cl)cn2)CC1)C1CCCCC1` [compound 207, N-hydroxy-2-(R)-{[4-(5-chloropyridin-2-yloxy)piperidine-1-sulfonyl]amino}-2-cyclohexylacetamide] the figure was 171.1 to 171.4 °C; with `C[C@@H](NS(=O)(=O)N1CCN(C(=O)Nc2ccc(Oc3ccccc3)cc2)CC1)C(=O)NO` [compound 213, N-hydroxy-2-(R)-{[4-(4-phenoxyphenylaminocarbonyl)piperazine-1-sulfonyl]amino}propionamide], 119 to 122 °C.
Regarding `O=C(NO)[C@H](NS(=O)(=O)N1CCC(c2ccc(F)cc2)CC1)c1ccc(F)cc1` [compound 230, N-hydroxy-2-(R)-{[4-(4-fluorophenyl)piperidine-1-sulfonyl]amino}-2-(4-fluorophenyl)acetamide], the melting point lay within 90 to 92 °C.
As to `O=C(NO)[C@H]1CCCCN1S(=O)(=O)N1CCCC1` [compound 232, N-hydroxy-1-(pyrrolidine-1-sulfonyl)piperidine-2-(R)-carboxamide], the melting point is 142 to 144 °C.
`N#Cc1ccc2[nH]cc(C3CCN(S(=O)(=O)N4CCCC[C@@H]4C(=O)NO)CC3)c2c1` [compound 294]: the pIC50 in data set [1] is 6.47; in data set [2], under 4.30.
Turning to `CN(C)C(=O)N1CCN(S(=O)(=O)N2CCC(C(=O)c3ccc(Cl)cc3)CC2)[C@@H](C(=O)NO)C1` [compound 298], the figures for the negative-log IC50 (pIC50) in data set [1] and in data set [2] were 9.70 and 6.89, respectively.
As for `CN(C)S(=O)(=O)N1CCN(S(=O)(=O)N2CCC(C(=O)c3ccc(Cl)cc3)CC2)[C@@H](C(=O)NO)C1` [compound 315], in data set [1], the pIC50 was 10.00.
Compound `O=C(NO)C1(NS(=O)(=O)N2CCC(Oc3ccccc3)CC2)CCCC1` [compound 337, N-hydroxy-1-{[(4-phenoxy)piperidine-1-sulfonyl]amino}cyclopentane-1-carboxamide] gave a melting point of 124.5 to 125.5 °C.
`O=C(NO)C1(NS(=O)(=O)N2CCN(c3ccc(Cl)cc3)CC2)CCOCC1` [compound 339, N-hydroxy-4-{[4-(4-chlorophenyl)piperazine-1-sulfonyl]amino}tetrahydropyran-4-carboxamide] displayed a melting point of 192.5 to 192.7 °C.
As for `O=C(NO)C1(NS(=O)(=O)N2CCN(c3ccc(Cl)cn3)CC2)CCCCC1` [compound 342], the negative-log IC50 (pIC50) was 8.68 in data set [1] and 6.77 in data set [2].
Regarding `CC(C)(NS(=O)(=O)N1CCC(C(=O)c2ccc(Cl)cc2)CC1)C(=O)NO` [compound 351, N-hydroxy-2-{[4-(4-chlorobenzoyl)piperidine-1-sulfonyl]amino}-2-methylpropionamide], the melting point lay in the range of 185.7 to 186.7 °C.
Regarding `CN(Cc1ccccc1)S(=O)(=O)N(CC(=O)NO)Cc1ccccc1` [compound 355], the pIC50 in data set [1] is 7.25; in data set [2] it was 6.19.
